Data taken from patent US9227956B2 (Pfizer Inc., priority 2013, dated 2016).

What was measured:
human PCSK9 [1] = assay: Cell Free PCSK9 Assay (PCSK9-luciferase RNA translated in HeLa cell lysate); assay type: biochemical; settings: 30° C. for 45 minutes, luciferase readout, top concentration 100 μM
PCSK9 [2] = assay: Global Proteomic Assay (SILAC), PCSK9 protein expression in conditioned media; assay type: cell-based, human; settings: Huh7 cells
Procedure: At the end of the indicated time points, media was removed and protease/phosphatase inhibitors added prior to freezing at −80° C. Cell layers were rinsed with PBS before adding cell dissociation buffer to detach the cells, cells were collected by rinsing with PBS and spun at 1000 rpm for 5 minutes. The cell pellet was resuspended in PBS for washing, spun at 1000 rpm for 5 minutes and the supernatant aspirated. The cell layer was then frozen at −80° C. and both the media and cell pellet were subjected to proteomic analysis.
(§1) For proteomic analysis of secreted proteins, equal volume of the conditioned media from light, medium, and heavy cells was mixed, followed by depletion of bovine serum albumin by anti-BSA agarose beads. The resulting proteins were subsequently concentrated using 3 KDa MWCO spin columns, reduced with dithiothreitol and alkylated with iodoacetamide.
The proteins derived from conditioned media and cell pellets were subsequently fractionated by SDS-PAGE. […]
(§2) The peptide mixtures were reconstituted in 0.1% formic acid. […] Peptide identification and relative protein quantification were carried out by searching the mass spectra against the human IPI database using Mascot search engine on Proteome Discoverer 1.3. […] Changes in protein expression upon compound treatment were calculated from the relative intensity of isotope-labeled and unlabeled peptides derived from that protein.

PCSK9 [3] = assay: PCSK9 lowering in sandwich culture human hepatocytes (SCHH); assay type: cell-based; settings: maximum response versus vehicle; at 8 h at 30 μM
human PCSK9 [4] = assay: PCSK9 AlphaLISA assay, PCSK9 lowering in WT7 cells; settings: WT7 cells (Huh7 stably over-expressing human PCSK9); secreted PCSK9 by AlphaLISA; overnight incubation (16-24 h); top concentration 20 μM; read-out: Cell Based PCSK9 IC50
Huh7 cells = assay: Global Proteomic Assay (SILAC), non-PCSK9 proteins with decreased expression; assay type: cell-based, human
Procedure: Cell layers were rinsed with PBS before adding cell dissociation buffer to detach the cells, cells were collected by rinsing with PBS and spun at 1000 rpm for 5 minutes. The cell pellet was resuspended in PBS for washing, spun at 1000 rpm for 5 minutes and the supernatant aspirated. The cell layer was then frozen at −80° C. and both the media and cell pellet were subjected to proteomic analysis.
as §1
For the analysis of cellular proteins, cell pellets were lysed in SDS-PAGE loading buffer in the presence of protease/phosphatase inhibitor cocktails. Cell lysates were centrifuged at 12000×g at 4° C. for 10 min. The resulting supernatants were collected, and protein concentrations were measured by BCA assay. Equal amount proteins in the light, medium, and heavy cell lysates were combined, reduced with dithiothreitol and alkylated with iodoacetamide.
The proteins derived from conditioned media and cell pellets were subsequently fractionated by SDS-PAGE. The gels were stained with Coomassie blue. After destaining, the gels were cut into 12-15 bands. Proteins were in-gel digested by trypsin overnight, after which peptides were extracted from the gels with CH3CN:1% formic acid (1:1, v/v). The resulting peptide mixtures were desalted with C18 Stage-Tips, dried in speedvac and stored at −20° C. until further analysis.
as §2

IC50 (human PCSK9 [1]) [µM] | Sandwich Culture Hepatocyte (SCHH) PCSK9 Lowering (PCSK9 [3]) [% at 8 h at 30 μM] | IC50 (human PCSK9 [4]) [µM] | Structure (SMILES) | PCSK9 in conditioned media relative to vehicle (PCSK9 [2]; 10 μM, 4 and 16 h post-treatment) | additional proteins in conditioned media with significant decrease in expression (Huh7 cells; 10 μM, 4 and 16 h, two proteins (Apolipoprotein A2, Cadherin 1) of approx. 1500) | decrease of PCSK9 protein expression in the conditioned media (PCSK9 [2]; 16 hours of treatment, 0.3 μM) [fold] | cellular proteins significantly decreased (Huh7 cells; 2 proteins (Apolipoprotein C3, Cadherin 1) of greater than 3000 cellular proteins) [%] | additional proteins with significant reduction in expression (media and cells) (Huh7 cells; 4 of 4083 proteins) [%]
5 | 58 | 10.7 | CCOC(=O)O[C@H](C)OC(=O)c1c(-c2ccc(C(=O)N(c3ncccc3Cl)[C@@H]3CCCNC3)cc2)cnn1C [Example 15b, (1R)-1-[(ethoxycarbonyl)oxy]ethyl 4-(4-{(3-chloropyridin-2-yl)[(3R)-piperidin-3-yl]carbamoyl}phenyl)-1-methyl-1H-pyrazole-5-carboxylate] | significantly reduced | approx. 0.13% |  |  | 
0.52 | 87 |  | O=C(c1ccc(-n2nnc3cccnc32)cc1)N(c1ncccc1Cl)[C@@H]1CCCNC1 [Example 16, N-(3-chloropyridin-2-yl)-N-[(3R)-piperidin-3-yl]-4-(3H-[1,2,3]triazolo[4,5-b]pyridin-3-yl)benzamide] |  |  | 2 | 0.067 | 0.098
